Data on 13 compounds can be found in patent US20230234942A1, “COMPOUNDS FOR TREATING HUNTINGTON'S DISEASE” (PTC Therapeutics, Inc., priority 2020, published 2023).

pIC50: −log10 of the molar value.

In this assay the test system is Endogenous Huntingtin Protein. Put plainly: Endogenous Huntingtin Protein Assay (ELISA-based MSD electrochemiluminescence). The settings on record: Table 2; MSD plates coated with MW1 (expanded polyglutamine) or MAB2166 capture antibody; "inactive" = result above the detection limit of the assay. In kind it is cell-based. The essentials:
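MSD electrochemiluminescence sandwich ELISA: capture with MW1 (expanded polyQ) or MAB2166 at 1 µg/mL, samples incubated overnight at 4 °C. Detection by rabbit mAb #56565 then SULFO-TAG anti-rabbit antibody, each 0.25 µg/mL for 1 h at room temperature, read in buffer T on SI 6000 imager.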
Background: ELISA stands for enzyme-linked immunosorbent assay.
Consider `CC(C)[C@H]1CN(c2ncc(-c3ccc(-c4cnc5n4CCC5)cc3O)nn2)CCN1` [Cpd 279, 5-(6,7-dihydro-5H-pyrrolo[1,2-a]imidazol-3-yl)-2-{3-[(3S)-3-(propan-2-yl)piperazin-1-yl]-1,2,4-triazin-6-yl}phenol], for which the pIC50 (commonly −log10 of the IC50, conventionally taken in molar units) was 8.28. The value for `CC[C@H]1CN(c2ncc(-c3ccc(-n4nccn4)cc3O)nn2)CCN1` [Cpd 132, 2-{3-[(3S)-3-ethylpiperazin-1-yl]-1,2,4-triazin-6-yl}-5-(2H-1,2,3-triazol-2-yl)phenol] was 7.41; that for `Cc1cn2nc(-c3ccc(-c4cnc(N5CCN[C@H](C)C5)nn4)c(O)c3)cc(C)c2n1` [Cpd 98, 5-(2,8-dimethylimidazo[1,2-b]pyridazin-6-yl)-2-{3-[(3R)-3-methylpiperazin-1-yl]-1,2,4-triazin-6-yl]phenol] was 7.99; that for `Oc1cc(-c2ncns2)ccc1-c1cnc(N2CCN[C@@H](C3CC3)C2)nn1` [Cpd 170, 2-{3-[(3S)-3-cyclopropylpiperazin-1-yl]-1,2,4-triazin-6-yl}-5-(1,2,4-thiadiazol-5-yl)phenol] was 7.67. Take `Cn1nc2cc(-c3cnc(-c4cnc(N5CCN[C@@H](C6CC6)C5)nn4)c(O)c3)cnc2n1` [Cpd 180, 2-{3-[(3S)-3-cyclopropylpiperazin-1-yl]-1,2,4-triazin-6-yl}-5-(2-methyl-2H-[1,2,3]triazolo[4,5-b]pyridin-6-yl)pyridin-3-ol]: the pIC50 is 7.56. The pIC50 values of the last two compounds are within 0.2 log units of each other. The compound `CC[C@@H]1CN(c2ncc(-c3ccc(-c4cc(OC)ncn4)cc3O)nn2)C[C@H](C)N1` [Cpd 228, 2-{3-[(3R,5S)-3-ethyl-5-methylpiperazin-1-yl]-1,2,4-triazin-6-yl}-5-(6-methoxypyrimidin-4-yl)phenol] showed a negative-log IC50 (pIC50) of 7.14. This pIC50 is 0.42 log units lower than that of the compound before. Regarding `Oc1cc(-c2cnn3c2CCC3)ccc1-c1cnc(N2CCN[C@@H](C3CC3)C2)nn1` [Cpd 276, 2-{3-[(3S)-3-cyclopropylpiperazin-1-yl]-1,2,4-triazin-6-yl}-5-(5,6-dihydro-4H-pyrrolo[1,2-b]pyrazol-3-yl)phenol], the pIC50 is 8.43. In the case of `CC(C)C1CN(c2ncc(-c3ccc(-c4cn[nH]c4)cc3O)nn2)CCN1` (stereo not shown) [Cpd 22, 2-{3-[3-(propan-2-yl)piperazin-1-yl]-1,2,4-triazin-6-yl}-5-(1H-pyrazol-4-yl)phenol], the negative-log IC50 (pIC50) is 7.65.

`CC(C)(C)[C@H]1CN(c2ncc(-c3ccc(-c4ncsn4)cc3O)nn2)CCN1` [Cpd 258, 2-{3-[(3S)-3-tert-butylpiperazin-1-yl]-1,2,4-triazin-6-yl}-5-(1,2,4-thiadiazol-3-yl)phenol] gave a pIC50 of 7.97. In turn, `CC(C)[C@H]1CN(c2ncc(-c3ccc(-c4ncns4)cc3O)nn2)C[C@@H](C)N1` (single isomer, unassigned) [Cpd 268, 2-{3-[(3R,5S)-3-methyl-5-(propan-2-yl)piperazin-1-yl]-1,2,4-triazin-6-yl}-5-(1,2,4-thiadiazol-5-yl)phenol or 2-{3-[(3S,5R)-3-methyl-5-(propan-2-yl)piperazin-1-yl]-1,2,4-triazin-6-yl}-5-(1,2,4-thiadiazol-5-yl)phenol] showed a pIC50 of 6.90.

In turn, `CC(C)[C@H]1CN(c2ncc(-c3ccc(-c4nc(C#N)cs4)cc3O)nn2)CCN1` [Cpd 273, 2-(3-hydroxy-4-{3-[(3S)-3-(propan-2-yl)piperazin-1-yl]-1,2,4-triazin-6-yl}phenyl)-1,3-thiazole-4-carbonitrile] had a pIC50 of 6.19. Compound `CC(C)[C@H]1CN(c2ncc(-c3ccc(-c4cnn5cccnc45)cc3O)nn2)CCN1` [Cpd 243, 2-{3-[(3S)-3-(propan-2-yl)piperazin-1-yl]-1,2,4-triazin-6-yl}-5-(pyrazolo[1,5-a]pyrimidin-3-yl)phenol] gave a pIC50 of 6.66. With `Cc1cn2cc(-c3ccc(-c4cnc(N5CCN[C@@H](C(C)C)C5)nn4)c(O)c3)ncc2n1` [Cpd 141, 5-(2-methylimidazo[1,2-a]pyrazin-6-yl)-2-{3-[(3S)-3-(propan-2-yl)piperazin-1-yl]-1,2,4-triazin-6-yl}phenol] the figure was 8.64.
